Converted amounts (≈) assume the structure as drawn. Like-named read-outs stand apart in the source and are kept apart here. A value given as a limit tells only on which side of the number the result lay.

The nature of one data set: Test 8: Fish Toxicity. The format is in vivo. Particulars: carp, water, carps, concentration at which 1/2 of the test fishes were killed, read-out: Fish Toxicity, TLm48. As for the experimental part: A water tank having a width of 60 cm, a length of 30 cm and a height of 40 cm was filled with water, and 10 yearling carps having a body length of about 5 cm were set free in the tank and adapted to the environment in the tank. A test compound was applied so that the concentration in water was 10, 1, or 0.1 ppm. After 48 hours, the numbers of killed and living carps were counted and the influences on the fishes were examined.

Data set [1] relates to Second-instar and fifth-instar larvae of tobacco cutworm. The data set can be described thus: Test 2: Tobacco Cutworm Larva Dipping Test. In kind it is in vivo.
In another data set the test system is German cockroach. Put plainly: Test 7: Effect on German Cockroach. The format is in vivo. To be noted: Blattella germanica, male adults, 24 hours, agonized and killed; for mortality at 10 mg/m2: 10 mg/m^2; for mortality at 50 mg/m2: 50 mg/m^2. The gist of the method: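 Dish bottoms were treated with 50 or 10 mg/m^2 of test compound and air-dried, then 10 male adult cockroaches were released per dish and held at 25° C. Agonized and killed adults were counted after 24 hours, averaged over two dishes.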

Data set [2] relates to sensitive green rice leafhopper (collected at Chigasaki). Put plainly: Test 3: Effect on Sensitive Green Rice Leafhopper. Particulars: Nephotettix cincticeps, female adults, 24 hours. In kind it is in vivo. The method, boiled down: (§1)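 Rice seedlings (2–3 leaves) sprayed with emulsifiable-concentrate dilutions at 100 or 20 ppm, 3 ml per pot, air-dried, then infested with 10 female adults per pot. Mortality counted after 24 h and averaged over three pots.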

A further data set has as its system green peach aphids. Put plainly: Test 5: Effect on green peach Aphid. In kind it is in vivo. To be noted: Myzus persicae, 24 hours, mortality class, read-out: Insecticidal Activity. As for the experimental part: To a mixture of 20 parts of the compound of the present invention and 20 parts of Sorpol SM-200 (registered trademark for the product supplied by Toho Chemical Industrial Co., Ltd.) was added 60 parts of xylol, and the mixture was sufficiently blended. The obtained emulsifiable concentrate was diluted at a predetermined concentration with distilled water, and the obtained dilution was used.
Seedlings (having 3 to 4 leaves) of an eggplant grown on a pot were inoculated with green peach aphids and the insects were allowed to grow. The number of the insects was counted. A chemical dilution having a concentration of 100 ppm, prepared in the same manner as described in Test 1, was applied with a spray gun at a rate of 10 ml per pot. Then, the pot was placed in a glass green house. After 24 hours, the number of living insects was counted and the mortality was calculated.
The test was made on three pots, and the average value was calculated. In Table 6, mark "A" indicates a mortality higher than 95%, mark "B" indicates a mortality of 80 to 95%, mark "C" indicates a mortality of 50 to 80%, and mark "D" indicates a mortality lower than 50%.

A short description of data set [3]: Test 9: Toxicity Test (acute oral, mice). Particulars: mouse, in vivo, po. As for the experimental part:
In the fish toxicity test, the test compound was dissolved in acetone to form a 1% solution, and a predetermined amount of the solution was used. In the mouse toxicity test, the test compound of the present invention was dissolved or suspended in corn oil, and a predetermined amount of the solution or suspension was used.
A predetermined amount of a solution or suspension of a test compound in corn oil was orally administered to male mice having a body weight of 19 to 23 g (0.2 ml per 10 g of the body weight). After 7 days, the number of killed mice was counted and the influences on the mice were examined.

Data set [4] deals with third-instar larvae of diamond back moth. The data set can be described thus: Test 4: Effect on Diamond Back Moth. The format is in vivo. To be noted: Plutella xylostella, 24 hours. The method, boiled down:
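Emulsifiable concentrate diluted in water to 100 or 20 ppm and sprayed at 3 ml per cup onto cabbage leaves holding 10 third-instar diamondback moth larvae. Dead and living larvae counted after 24 h; mortality averaged over three cups.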

The subject of data set [5] is resistant green rice leafhopper (collected at Nakagawara). Put plainly: Test 3: Effect on Resistant Green Rice Leafhopper. To be noted: Nephotettix cincticeps, 24 h, read-out: Mortality (%) Green Rice Leafhopper Collected at Nakagawara. In kind it is in vivo, Nephotettix cincticeps Uhler. The gist of the method:
as §1

Another data set deals with two-spotted spider mite. Put plainly: Test 6: Effect on Two-Spotted Spider mite adults. The format is in vivo. To be noted: Tetranychus urticae; 500 ppm; adults; 24 hours; read-out: Mortality (%). The gist of the method:
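Kidney bean leaf discs (15 mm) on wet cotton, each holding 10 adult mites, sprayed with 3 ml of a 500 ppm dilution of an emulsifiable concentrate. Kept at 25° C; dead adults counted after 24 hours to give mortality, averaged over three discs.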

The mark [6] stands for this setting: topical, 24 h, read-out: Mortality (%) Fifth-Instar Larvae.

On to `CC(C)(COCc1ccc(F)c(Oc2ccccc2)c1)c1ccccc1` [Compound 2, 3-Phenoxy-4-fluorobenzyl 2-phenyl-2-methylpropyl ether], for which the LC50 at 48 h in “Test 8: Fish Toxicity” was over 1 µg/mL. The mortality at 20 ppm turned out to be 100% in data set [1] (20 ppm, second-instar larvae, 24 hours, read-out: Mortality (%) Second-Instar Larvae); 100% in data set [1] (setting [6]); 100% in data set [2]; 100% in data set [4]; 100% in data set [5]. Besides, the mortality at 100 ppm is 100% in [1] (100 ppm, second-instar larvae, 24 hours, read-out: Mortality (%) Second-Instar Larvae); 100% in data set [1] (setting [6]); 100% in [2]; over 95% with green peach aphids; 100% in data set [4]; 100% in data set [5]. In the data set with German cockroach, this compound displayed a mortality at 10 mg/m2 of 100%. Further, in the data set with German cockroach, the mortality at 50 mg/m2 stood at 100%. In addition, in [3], the LD50 (as a rule, the dose expected to kill half of the subjects tested) at 168 h is over 500 mg/kg.
In the case of `COc1ccc(C(C)(C)COCc2ccc(F)c(Oc3ccc(F)cc3)c2)cc1` [Compound 5, 3-(4-Fluorophenoxy)-4-fluorobenzyl 2-(4-methoxyphenyl)-2-methylpropyl ether], the LC50 at 48 h in the data set “Test 8: Fish Toxicity” was over 1 µg/mL. In [2], this compound gave a mortality at 20 ppm of 100% and a mortality at 100 ppm of 100%. In addition, the LD50 at 168 h in data set [3] is over 500 mg/kg. Further, in [5], the mortality at 20 ppm stood at 100% and the mortality at 100 ppm amounted to 100%.
Regarding `CC(C)(COCc1cc(Oc2ccccc2)ccc1Cl)c1ccc(Cl)cc1` [Compound 7, 3-phenoxy-6-chlorobenzyl 2-(4-chlorophenyl)-2-methylpropyl ether], the LC50 at 48 h in “Test 8: Fish Toxicity” is over 10 µg/mL. The same compound yielded an LD50 at 168 h in [3] of over 500 mg/kg.
In the case of `CC(C)(COCc1ccc(F)c(Oc2cccc(Cl)c2)c1)c1ccc(Cl)cc1` [Compound 9, 3-(3-Chlorophenoxy)-4-fluorobenzyl 2-(4-chlorophenyl)-2-methylpropyl ether], the LC50 at 48 h in “Test 8: Fish Toxicity” was over 1 µg/mL. The same compound gave an LD50 at 168 h in data set [3] of over 500 mg/kg.
For the compound `CC(C)(COCc1ccc(F)c(Oc2ccccc2)c1)c1ccc(Cl)c(Cl)c1` [Compound 14, 3-Phenoxy-4-fluorobenzyl 2-(3,4-dichlorophenyl)-2-methylpropyl ether], the LC50 at 48 h in “Test 8: Fish Toxicity” was over 1 µg/mL. Further, the mortality at 500 ppm in the data set on two-spotted spider mite stood at 100%. In data set [4], the mortality at 20 ppm came out at 100% and the mortality at 100 ppm is 100%.
Take `CCC(C)(COCc1ccc(F)c(Oc2ccccc2)c1)c1ccc(Cl)cc1` (stereo not shown) [Compound 20, 3-Phenoxy-4-fluorobenzyl 2-(4-chlorophenyl)-2-methylbutyl ether]: the LC50 at 48 h in “Test 8: Fish Toxicity” is over 1 µg/mL. In the data set with German cockroach, the mortality at 10 mg/m2 was determined as 100% and the mortality at 50 mg/m2 was determined as 100%. For the same compound, the mortality at 500 ppm with two-spotted spider mite was 100%. In data set [2], this compound gave a mortality at 20 ppm of 100% and a mortality at 100 ppm of 100%. Besides, the LD50 at 168 h in [3] was over 500 mg/kg. Besides, in data set [4], the mortality at 20 ppm worked out at 100% and the mortality at 100 ppm came out at 100%. Also, in [5], the mortality at 20 ppm amounted to 100% and the mortality at 100 ppm came to 100%.
Consider `CC(C)(COCc1cc(Oc2ccccc2)ccc1Br)c1ccc(Cl)cc1` [Compound 26, 3-Phenoxy-6-bromobenzyl 2-(4-chlorophenyl)-2-methylpropyl ether], for which the LC50 at 48 h in the data set “Test 8: Fish Toxicity” was over 10 µg/mL. The compound also gave an LD50 at 168 h in [3] of over 500 mg/kg.
`Cc1ccc(C(C)(C)COCc2ccc(F)c(Oc3ccccc3)c2)cc1` [Compound 28, 3-phenoxy-4-fluorobenzyl 2-(4-methylphenyl)-2-methylpropyl ether]: in the data set “Test 8: Fish Toxicity”, the LC50 at 48 h is over 1 µg/mL. For the same compound, the mortality at 10 mg/m2 in the data set with German cockroach was determined as 100%. Also, in the data set with German cockroach, the mortality at 50 mg/m2 was determined as 100%. Further, the mortality at 20 ppm in [2], in [4] and in [5] was 100% throughout. For the same compound, the mortality at 100 ppm in [2] was 100%; in the data set with green peach aphids, over 95%; in data set [4], 100%; in data set [5], 100%.
For the compound `Cc1ccc(C(C)(C)COCc2cc(Oc3ccccc3)ccc2Cl)cc1` [Compound 31, 3-Phenoxy-6-chlorobenzyl 2-(4-methylphenyl)-2-methylpropyl ether], in “Test 8: Fish Toxicity”, the LC50 at 48 h was over 10 µg/mL. In data set [3], the LD50 at 168 h was over 500 mg/kg.
In the case of `CCCCCOc1ccc(C(C)(C)COCc2ccc(F)c(Oc3ccccc3)c2)cc1` [Compound 38, 3-Phenoxy-4-fluorobenzyl 2-(4-n-pentyloxyphenyl)-2-methylpropyl ether], the LC50 at 48 h in “Test 8: Fish Toxicity” was over 1 µg/mL. Besides, in the data set with German cockroach, the mortality at 10 mg/m2 amounted to 100% and the mortality at 50 mg/m2 turned out to be 100%. Moreover, the mortality at 500 ppm in the data set on two-spotted spider mite was found to be 100%. Moreover, the mortality at 100 ppm in the data set on green peach aphids was over 95%. In data set [4], this compound gave a mortality at 20 ppm of 100% and a mortality at 100 ppm of 100%.
For the compound `CC(C)(COCc1ccc(F)c(Oc2ccccc2)c1)c1cc(Cl)cc(Cl)c1` [Compound 48, 3-Phenoxy-4-fluorobenzyl 2-(3,5-dichlorophenyl)-2-methylpropyl ether], the LC50 at 48 h in “Test 8: Fish Toxicity” was over 1 µg/mL. Besides, the mortality at 20 ppm in data set [2] and in data set [5] was 100% in each case. In addition, the mortality at 100 ppm is 100% in data set [2], 80 to 95% with green peach aphids and 100% in data set [5]. The compound also had an LD50 at 168 h in [3] of over 500 mg/kg.
Turning to `CCCCOc1ccc(C(C)(C)COCc2ccc(F)c(Oc3ccccc3)c2)cc1` [Compound 49], the LC50 at 48 h in the data set “Test 8: Fish Toxicity” was about 0.5 µg/mL (≈ 1.18 µM). This compound also displayed a mortality at 10 mg/m2 in the data set with German cockroach of 100%. For the same compound, in the data set with German cockroach, the mortality at 50 mg/m2 stood at 100%. The mortality at 20 ppm in [2] and in [5] was 100% throughout. The mortality at 100 ppm in data set [2] was 100%; with green peach aphids, over 95%; in data set [5], 100%.
Consider `CC(C)(COCc1ccc(F)c(Oc2ccccc2)c1)c1ccc(Oc2ccccc2)cc1` [Compound 52, 3-Phenoxy-4-fluorobenzyl 2-(4-phenoxyphenyl)-2-methylpropyl ether], for which, in the data set “Test 8: Fish Toxicity”, the LC50 at 48 h is over 1 µg/mL. In the data set on German cockroach, the mortality at 10 mg/m2 is 100% and the mortality at 50 mg/m2 was 100%. Further, the mortality at 500 ppm in the data set with two-spotted spider mite is 100%. Moreover, in the data set with green peach aphids, the mortality at 100 ppm was over 95%.
Consider `COCSc1ccc(C(C)(C)COCc2ccc(F)c(Oc3ccccc3)c2)cc1` [Compound 60, 3-Phenoxy-4-fluorobenzyl 2-(4-methoxymethylthiophenyl)-2-methylpropyl ether], for which, in “Test 8: Fish Toxicity”, the LC50 at 48 h is over 1 µg/mL. Further, the mortality at 10 mg/m2 with German cockroach is 100%. In the data set on German cockroach, the mortality at 50 mg/m2 stood at 100%. Further, the mortality at 20 ppm in data set [2] was determined as 90%; in data set [4], 95%; in data set [5] it was 100%. The mortality at 100 ppm in [2] was 100%; in the data set with green peach aphids, over 95%; in [4] it was 100%; in data set [5], 100%.
For `CCOc1ccc(C(C)(C)COCc2ccc(F)c(Oc3ccc(Br)cc3)c2)cc1` [Compound 68, 3-(4-Bromophenoxy)-4-fluorobenzyl 2-(4-ethoxyphenyl)-2-methylpropyl ether], the LC50 at 48 h in “Test 8: Fish Toxicity” is over 1 µg/mL. The mortality at 20 ppm in data set [2], in data set [4] and in data set [5] was 100% in each case. Moreover, the mortality at 100 ppm was 100% in data set [2], over 95% in the data set with green peach aphids, 100% in data set [4] and 100% in data set [5]. In addition, the LD50 at 168 h in [3] is over 500 mg/kg.

Source of the values: patent publication US4599362A, “2-aryl-ethyl ether derivatives and insecticidal and acaricidal agents containing said derivatives” (priority 1980, dated 1986).
